Each structure is given as a SMILES string.

What is called Papp is the rate of passage across a membrane or cell layer, normalised by area and donor concentration. One may read the IC50 as the midpoint of a concentration-inhibition curve. A word on the logD: it is lipophilicity at a set pH, counting ionised and neutral species.

A short description of data set [1]: Caco-2 permeability assay (CacoReady kit). The conditions noted are these: human. The data set is classed as in vitro ADME. The gist of the method:
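Caco-2 monolayer barrier, commercial ready-to-use kit, manufacturer protocol. Read-out: Papp.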
(In general: Caco-2 cells form a polarised layer with tight junctions and transporters.)

Data set [2] concerns the target T1, recombinant human transglutaminase 2 (Homo sapiens, UniProt P21980).
T1 construct: purchased Zedira T022
T1 sequence (P21980 1-687): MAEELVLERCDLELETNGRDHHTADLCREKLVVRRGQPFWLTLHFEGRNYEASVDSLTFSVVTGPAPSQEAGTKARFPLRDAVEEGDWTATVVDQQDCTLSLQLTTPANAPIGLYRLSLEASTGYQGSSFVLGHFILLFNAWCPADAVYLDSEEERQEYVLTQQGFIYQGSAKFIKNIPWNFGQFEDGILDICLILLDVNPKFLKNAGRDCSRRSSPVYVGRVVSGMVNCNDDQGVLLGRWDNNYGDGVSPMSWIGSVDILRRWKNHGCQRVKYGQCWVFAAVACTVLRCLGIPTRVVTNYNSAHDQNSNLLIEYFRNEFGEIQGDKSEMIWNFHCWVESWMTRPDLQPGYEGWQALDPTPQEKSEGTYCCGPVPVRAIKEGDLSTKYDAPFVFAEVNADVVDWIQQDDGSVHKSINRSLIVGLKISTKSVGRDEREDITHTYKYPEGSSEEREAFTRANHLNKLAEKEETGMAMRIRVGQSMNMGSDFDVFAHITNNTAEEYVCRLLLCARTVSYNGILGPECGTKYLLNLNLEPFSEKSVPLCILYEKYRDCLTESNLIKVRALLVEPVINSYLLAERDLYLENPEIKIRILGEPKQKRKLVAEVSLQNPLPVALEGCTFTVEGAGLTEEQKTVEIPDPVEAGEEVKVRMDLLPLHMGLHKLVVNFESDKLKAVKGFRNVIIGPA
Put plainly: Transglutaminase assay (dansylcadaverine incorporation into dimethylcasein, DCC-assay). The conditions noted are these: recombinant human TG2 10 nM, dansylcadaverine/dimethylcasein, 37° C. The data set is classed as biochemical. The gist of the method:
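IC50 derived from fluorescence slope between 20 and 30 min (λex 330 nm, λem 500 nm, 37 °C), expressed relative to a 2% DMSO control. Reaction: 10 nM recombinant human TG2, 4 μM dimethylcasein, 16.7 μM dansylcadaverine, 10 mM CaCl2 and glutathione, pH 8.0.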

Data set [3] is described as follows: Log D shake flask method (octanol / PBS pH 7.4, HPLC). The data set is classed as physicochemical. The conditions noted are these: octanol/phosphate-buffered saline (PBS); octanol / PBS pH 7.4, shake flask. As for the experimental part:
In order to classify the inventive compounds according to their lipophilicity, Log D values (distribution coefficient) were determined by means of the well-established shake flask method, measuring the partition of a compound between an octanol and phosphate-buffered saline (PBS, pH 7.4) by HPLC.

Turning to `COC(=O)/C=C/CC[C@H](NC(=O)c1cncc(C(=O)OC)c1)C(=O)Nc1cccn(CC(=O)NC2C3CC4CC(C3)CC2C4)c1=O` (stereo partly drawn) [III-36, (S,E)-methyl 5-(1-(1-(2-(2-adamantylamino)-2-oxoethyl)-2-oxo-1,2-dihydropyridin-3-ylamino)-7-methoxy-1,7-dioxohept-5-en-2-ylcarbamoyl)nicotinate], the Papp in data set [1] was below 1 ×10⁻⁶ cm/s. For the same molecule, in data set [2], the IC50 lay within 25 to 250 nM. Further, the logD in data set [3] is 3 to 5.

As for `COC(=O)/C=C/CC[C@H](NC(=O)c1oc2ccccc2c1C)C(=O)Nc1cccn(CC(=O)N(C)C2C3CC4CC(C3)CC2C4)c1=O` (stereo partly drawn) [III-37, (S,E)-methyl 7-(1-(2-(2-adamantyl(methyl)amino)-2-oxoethyl)-2-oxo-1,2-dihydropyridin-3-ylamino)-6-(3-methylbenzofuran-2-carboxamido)-7-oxohept-2-enoate], in data set [1], the Papp was in the range of 1 to 10 ×10⁻⁶ cm/s. Also, in data set [2], the IC50 lay within 25 to 250 nM. In data set [3], this molecule showed a logD of 3 to 5.

In turn, `COC(=O)/C=C/CC[C@H](NC(=O)c1oc2ccccc2c1C)C(=O)Nc1cccn(CC(=O)NC2C3CC4CC2CC(O)(C4)C3)c1=O` (stereo partly drawn) [III-38, (S,E)-methyl 7-(1-(2-(5-hydroxyadamantan-2-amino)-2-oxoethyl)-2-oxo-1,2-dihydropyridin-3-ylamino)-6-(3-methylbenzofuran-2-carboxamido)-7-oxohept-2-enoate] yielded a Papp in data set [1] below 1 ×10⁻⁶ cm/s. Also, the IC50 in data set [2] was 25 to 250 nM. The same molecule gave a log distribution coefficient (logD) in data set [3] of 1 to 3.

Consider `COC(=O)/C=C/CC[C@H](NC(=O)c1oc2ccccc2c1C)C(=O)Nc1cccn(CC(=O)NC2C3CC4CC2CC(F)(C4)C3)c1=O` (stereo partly drawn) [III-39, (S,E)-methyl 7-(1-(2-(5-fluoroadamantan-2-amino)-2-oxoethyl)-2-oxo-1,2-dihydropyridin-3-ylamino)-6-(3-methylbenzofuran-2-carboxamido)-7-oxohept-2-enoate], for which, in data set [1], the Papp lay in the range of 1 to 10 ×10⁻⁶ cm/s. The IC50 in data set [2] is below 25 nM. Moreover, the logD in data set [3] was 3 to 5.

With `COC(=O)/C=C/CC[C@H](NC(=O)c1oc2ccccc2c1C)C(=O)Nc1cccn(CC(=O)NC2C3CC4CC2CC(Cl)(C4)C3)c1=O` (stereo partly drawn) [III-40, (S,E)-methyl 7-(1-(2-(5-chloroadamantan-2-amino)-2-oxoethyl)-2-oxo-1,2-dihydropyridin-3-ylamino)-6-(3-methylbenzofuran-2-carboxamido)-7-oxohept-2-enoate], the Papp in data set [1] is 1 to 10 ×10⁻⁶ cm/s. Moreover, the IC50 in data set [2] is below 25 nM. Moreover, the logD in data set [3] lay in the range of 3 to 5.

In data set [1], `COC(=O)/C=C/CC[C@H](NC(=O)c1oc2ccccc2c1C)C(=O)Nc1cccn(CC(=O)NC2C3CC4CC2CC(Br)(C4)C3)c1=O` (stereo partly drawn) [III-41, (S,E)-methyl 7-(1-(2-(5-bromoadamantan-2-amino)-2-oxoethyl)-2-oxo-1,2-dihydropyridin-3-ylamino)-6-(3-methylbenzofuran-2-carboxamido)-7-oxohept-2-enoate] had a Papp of 1 to 10 ×10⁻⁶ cm/s. In addition, the IC50 in data set [2] is below 25 nM. Also, in data set [3], the logD lay in the range of 3 to 5.

Molecule `COC(=O)/C=C/CC[C@H](NC(=O)c1oc2ccccc2c1C)C(=O)Nc1cccn(CC(=O)NC2C3CC4CC2CC(C)(C4)C3)c1=O` (stereo partly drawn) [III-42, (S,E)-methyl 7-(1-(2-(5-methyladamantan-2-amino)-2-oxoethyl)-2-oxo-1,2-dihydropyridin-3-ylamino)-6-(3-methylbenzofuran-2-carboxamido)-7-oxohept-2-enoate] had a Papp in data set [1] of 1 to 10 ×10⁻⁶ cm/s. Also, the IC50 in data set [2] was below 25 nM. This molecule also yielded a logD in data set [3] of 3 to 5.

In data set [1], `COC(=O)/C=C/CC[C@H](NC(=O)c1oc2ccccc2c1C)C(=O)Nc1cccn(CC(=O)NC2(C#N)C3CC4CC(C3)CC2C4)c1=O` (stereo partly drawn) [III-43, (S,E)-methyl 7-(1-(2-(2-carbonitrileadamantane-2-amino)-2-oxoethyl)-2-oxo-1,2-dihydropyridin-3-ylamino)-6-(3-methylbenzofuran-2-carboxamido)-7-oxohept-2-enoate] registered a Papp below 1 ×10⁻⁶ cm/s. The IC50 in data set [2] lay in the range of 25 to 250 nM. In data set [3], this molecule had a logD of 3 to 5.

Molecule `COC(=O)/C=C/CC[C@H](NC(=O)c1oc2ccccc2c1C)C(=O)Nc1cccn(CC(=O)NC2(C(=O)OC)C3CC4CC(C3)CC2C4)c1=O` (stereo partly drawn) [III-44, (S,E)-methyl 7-(1-(2-(2-methyladamantane-2-carboxylate-2-amino)-2-oxoethyl)-2-oxo-1,2-dihydropyridin-3-ylamino)-6-(3-methylbenzofuran-2-carboxamido)-7-oxohept-2-enoate] had a Papp in data set [1] below 1 ×10⁻⁶ cm/s. In data set [2], the half-maximal inhibitory concentration (IC50) fell in the range of 25 to 250 nM. For the same molecule, the logD in data set [3] was 3 to 5.

Take `COC(=O)/C=C/CC[C@H](NC(=O)c1oc2ccccc2c1C)C(=O)Nc1cccn(CC(=O)NC23CC4CC(CC(C4)C2)C3)c1=O` [III-45, (S,E)-methyl 7-(1-(2-(1-adamantylamino)-2-oxoethyl)-2-oxo-1,2-dihydropyridin-3-ylamino)-6-(3-methylbenzofuran-2-carboxamido)-7-oxohept-2-enoate]: in data set [1], the Papp was 1 to 10 ×10⁻⁶ cm/s. For the same molecule, the IC50 in data set [2] was in the range of 25 to 250 nM. Besides, in data set [3], the logD lay within 3 to 5.

In turn, `COC(=O)/C=C/CC[C@H](NC(=O)c1oc2ccccc2c1C)C(=O)Nc1cccn(CC(=O)NC23CC4CC(C)(CC(C)(C4)C2)C3)c1=O` [III-46, (S,E)-methyl 7-(1-(2-(3,5-dimethyladamantan-1-amino)-2-oxoethyl)-2-oxo-1,2-dihydropyridin-3-ylamino)-6-(3-methylbenzofuran-2-carboxamido)-7-oxohept-2-enoate] yielded a Papp in data set [1] of 1 to 10 ×10⁻⁶ cm/s. Besides, the IC50 in data set [2] was below 25 nM. The same molecule showed a logD in data set [3] of 3 to 5.

In data set [1], `COC(=O)/C=C/CC[C@H](NC(=O)c1oc2ccccc2c1C)C(=O)Nc1cccn(CC(=O)N(C)C23CC4CC(CC(C4)C2)C3)c1=O` [III-47, (S,E)-methyl 7-(1-(2-(1-adamantyl(methyl)amino)-2-oxoethyl)-2-oxo-1,2-dihydropyridin-3-ylamino)-6-(3-methylbenzofuran-2-carboxamido)-7-oxohept-2-enoate] showed a Papp of 1 to 10 ×10⁻⁶ cm/s. The IC50 in data set [2] was in the range of 250 to 1500 nM. For the same molecule, the logD in data set [3] fell in the range of 3 to 5.

In data set [1], `CCC12CC3CC(C1)CC(NC(=O)Cn1cccc(NC(=O)[C@H](CC/C=C/C(=O)OC)NC(=O)c4oc5ccccc5c4C)c1=O)(C3)C2` [III-48, (S,E)-methyl 7-(1-(2-(3-ethyladamantan-1-amino)-2-oxoethyl)-2-oxo-1,2-dihydropyridin-3-ylamino)-6-(3-methylbenzofuran-2-carboxamido)-7-oxohept-2-enoate] yielded a Papp of 1 to 10 ×10⁻⁶ cm/s. Besides, the IC50 in data set [2] lay in the range of 25 to 250 nM. Moreover, the logD in data set [3] was in the range of 3 to 5.

Molecule `COC(=O)/C=C/CC[C@H](NC(=O)c1oc2ccccc2c1C)C(=O)Nc1cccn(CC(=O)NC23CC4CC(C2)CC(C(F)(F)F)(C4)C3)c1=O` [III-49, (S,E)-methyl 7-(1-(2-(3-trifluoromethyladamantan-1-amino)-2-oxoethyl)-2-oxo-1,2-dihydropyridin-3-ylamino)-6-(3-methylbenzofuran-2-carboxamido)-7-oxohept-2-enoate] showed a Papp in data set [1] of 1 to 10 ×10⁻⁶ cm/s. Besides, in data set [2], the IC50 was in the range of 25 to 250 nM. In data set [3], this molecule had a logD of 3 to 5.

In turn, `COC(=O)/C=C/CC[C@H](NC(=O)c1oc2ccccc2c1C)C(=O)Nc1cccn(CC(=O)NC23CC4CC(CC(O)(C4)C2)C3)c1=O` [III-50, (S,E)-methyl 7-(1-(2-(3-hydroxyadamantan-1-amino)-2-oxoethyl)-2-oxo-1,2-dihydropyridin-3-ylamino)-6-(3-methylbenzofuran-2-carboxamido)-7-oxohept-2-enoate] had a Papp in data set [1] below 1 ×10⁻⁶ cm/s. For the same molecule, the IC50 in data set [2] lay within 25 to 250 nM. In addition, the logD in data set [3] was 1 to 3.

On to `COC(=O)/C=C/CC[C@H](NC(=O)c1oc2ccccc2c1C)C(=O)Nc1cccn(CC(=O)NC23CC4CC(CC(F)(C4)C2)C3)c1=O` [III-51, (S,E)-methyl 7-(1-(2-(3-fluoroadamantan-1-amino)-2-oxoethyl)-2-oxo-1,2-dihydropyridin-3-ylamino)-6-(3-methylbenzofuran-2-carboxamido)-7-oxohept-2-enoate], for which the Papp in data set [1] is 1 to 10 ×10⁻⁶ cm/s. The IC50 in data set [2] was below 25 nM. Also, the logD in data set [3] lay in the range of 3 to 5.

The molecule `COC(=O)/C=C/CC[C@H](NC(=O)c1oc2ccccc2c1C)C(=O)Nc1cccn(CC(=O)NC23CC4CC(CC(Cl)(C4)C2)C3)c1=O` [III-52, (S,E)-methyl 7-(1-(2-(3-chloroadamantan-1-amino)-2-oxoethyl)-2-oxo-1,2-dihydropyridin-3-ylamino)-6-(3-methylbenzofuran-2-carboxamido)-7-oxohept-2-enoate] came in with a Papp in data set [1] of 1 to 10 ×10⁻⁶ cm/s. In addition, in data set [2], the IC50 is below 25 nM. Also, in data set [3], the logD was in the range of 3 to 5.
